In patent US8183237B2, “Benzenesulfonanilide compounds suitable for treating disorders that respond to modulation of the serotonin 5-HT6 receptor” (Abbott Laboratories, priority 2009, dated 2012):
Where a name gives a salt, the structure may show the parent alone. Read-outs that look alike come from different tables or passages of the source.

What was measured:
[1] = target: T1, h-5-HT6 receptor (Homo sapiens, UniProt P50406); assay: 5-HT6 receptor binding assay (displacement of [3H]-LSD)
T1 construct: expressed in transfected cells; host or cells: HEK293
Description: Displacement of radioligands binding to the following cloned human receptors
(§1) 1. Preparation of Membranes by Ultrasonic Treatment and Differential Centrifugation
Cells from stable clonal cell lines expressing the corresponding receptor (5-HT6, α1-adrenergic, dopamine D2 or histamine H1 receptors) were washed with PBS (w/o Ca^++, Mg^++) and harvested in PBS with 0.02% EDTA. The cells were collected by centrifugation at 500 g for 10 min. at 4° C., washed with PBS and centrifuged (500 g, 10 min. 4° C.). The pellets were stored at −80° C. until use. For membrane preparation, the thawed cell pellet was resuspended in ice-cold sucrose buffer (0.25 M sucrose, 10 mM Hepes (pH 7.4), 1 mM Phenylmethylsulfonyl fluoride (PMSF) in DMSO, 5 μg/ml Pepstatin-A, 3 mM EDTA, 0.025% Bacitracin) and homogenized with a Branson Sonifier W-250 (Settings: Timer 4; Output Control 3; Duty Cycle constant; 2 to 3 cycles). Cell disruption was checked with the aid of a microscope. Remaining unbroken cells were pelleted at 1.000 g for 10 min. at 4° C. The sucrose buffer supernatant was then centrifuged at 60.000 g for 1 h at 4° C. (Beckman Ultrazentrifuge XL 80). The pellet was resuspended in 30 ml ice-cold Tris buffer (20 mM TRIS (pH 7.4), 5 μg/ml Pepstatin A, 0.1 mM PMSF, 3 mM EDTA) by pipetting through a 10 ml serological pipet and centrifuged for 1 h at 4° C. at 60.000 g. A final resuspension was performed in a small volume of ice-cold Tris buffer (see above) by pressing through a serological pipet followed by ultrasonic treatment with a Branson Sonifier W-250 (Settings: Timer 1; Output Control 3; Duty Cycle constant; 1 cycle). Protein concentration was determined (BCA-Kit; Pierce) and aliquots stored at −80° C. or in liquid nitrogen for long-term storage.
(§2) 2. Receptor Binding Experiments
All receptor binding experiments were carried out in the corresponding assay buffer in a total volume of 200 μl in the presence of various concentrations of test compound (10^−5 M to 10^−9 M, tenfold serial dilution, duplicate determinations). The assays were terminated by filtration on polyethylenimine (PEI 0.1% or 0.3%) presoaked Packard Unifilter Plates (GF/C or GF/B) with a Tomtec MachIII U 96 well-plate harvester. After the plates had been dried for 2 h at 55° C. in a drying chamber scintillation cocktail (BetaPlate Scint; PerkinElmer) was added. Radioactivity was measured in a Microbeta Trilux two hours after the addition of the scintillation mixture. Data derived from liquid scintillation counting were analysed by iterative non-linear regression analysis with the use of the Statistical Analysis System (SAS): a program similar to “LIGAND” as described by Munson and Rodbard (Analytical Biochemistry 107, 220-239 (1980).
a) 5-HT6 Receptor Binding Assay
HEK293 cells stably expressing the h-5-HT6 receptor (NCBI Reference Sequence XM 001435) were cultured in RPMI1640 medium supplemented with 25 mM HEPES, 10% fetal calf serum and 1-2 mM glutamine. The membrane preparation was performed as described in section 1. […] Non-specific binding was defined with 1 μM methiothepin. The binding reaction was carried out for 3.5 h at room temperature. […]
Data derived from liquid scintillation counting were analyzed by iterative non-linear regression analysis with the use of the Statistical Analysis System (SAS): a program similar to “LIGAND” as described by Munson and Rodbard (Anal. Biochem. 1980, 107, 220-239). […] IC50, nH and Ki values were expressed as geometrical mean.

[2] = target: T2, dopamine D2 receptor (Homo sapiens, UniProt P14416); assay: Dopamine D2 receptor binding assay (displacement of [125I]-iodospiperone); conditions: saturation binding experiments, HEK293 D2 membranes
T2 construct: expressed in transfected cells; host or cells: HEK293
Description: as §1
The pellets were stored at −80° C. until use. […] (Beckman Ultrazentrifuge XL 80).
as §2
b) Dopamine D2 Receptor Binding Assay
Non-specific binding was defined with 1 μM haloperidol.

[3] = membranes of HEK293 cells stably expressing h-5-HT6 receptor, 1 nM [3H]-LSD, read-out: Ki (5HT6)

T1 sequence (P50406 whole entry): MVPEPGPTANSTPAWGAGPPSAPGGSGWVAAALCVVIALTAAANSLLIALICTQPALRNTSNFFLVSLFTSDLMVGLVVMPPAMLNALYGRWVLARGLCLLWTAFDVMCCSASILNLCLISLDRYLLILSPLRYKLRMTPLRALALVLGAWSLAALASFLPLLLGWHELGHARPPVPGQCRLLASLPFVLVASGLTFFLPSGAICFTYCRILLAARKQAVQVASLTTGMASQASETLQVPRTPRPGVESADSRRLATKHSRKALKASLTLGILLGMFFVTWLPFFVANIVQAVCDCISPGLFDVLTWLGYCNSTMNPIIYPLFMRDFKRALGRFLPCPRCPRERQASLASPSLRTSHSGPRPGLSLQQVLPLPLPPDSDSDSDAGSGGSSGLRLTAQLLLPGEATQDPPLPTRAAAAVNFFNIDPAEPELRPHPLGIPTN
T2 sequence (P14416 whole entry): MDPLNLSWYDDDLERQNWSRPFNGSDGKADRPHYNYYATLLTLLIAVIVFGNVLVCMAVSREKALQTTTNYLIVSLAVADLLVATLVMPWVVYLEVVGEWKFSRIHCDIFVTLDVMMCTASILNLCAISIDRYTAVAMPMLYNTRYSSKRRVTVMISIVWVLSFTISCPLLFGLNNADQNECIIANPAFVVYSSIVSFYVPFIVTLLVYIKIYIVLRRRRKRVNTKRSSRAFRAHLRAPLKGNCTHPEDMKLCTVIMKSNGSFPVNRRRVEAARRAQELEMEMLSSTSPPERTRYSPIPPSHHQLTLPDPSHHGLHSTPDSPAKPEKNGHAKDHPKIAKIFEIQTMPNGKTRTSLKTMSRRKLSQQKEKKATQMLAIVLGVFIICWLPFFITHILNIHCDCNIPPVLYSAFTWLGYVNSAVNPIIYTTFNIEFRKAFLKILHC

Compound | Ki [1, 3] [nM] | also measured
Cc1ccc(NS(=O)(=O)c2cccc(OC(F)F)c2)cc1N1CCCNCC1 [Example 4, N-(3-[1,4]Diazepan-1-yl-4-methyl-phenyl)-3-difluoromethoxy-benzenesulfonamide hydrochloride] | < 20 | –
Cc1ccc(NS(=O)(=O)c2ccccc2OC(F)F)cc1N1CCCN(C)CC1 [Example 5, 2-Difluoromethoxy-N-[4-methyl-3-(4-methyl-[1,4]diazepan-1-yl)-phenyl]-benzenesulfonamide hydrochloride] | < 20 | –
Cc1ccc(NS(=O)(=O)c2ccccc2OC(F)F)cc1N1CCCNCC1 [Example 2, N-(3-[1,4]Diazepan-1-yl-4-methyl-phenyl)-2-difluoromethoxy-benzenesulfonamide hydrochloride] | < 50 | –
Cc1ccc(N(C)S(=O)(=O)c2cccc(OC(F)F)c2)cc1N1CCCNCC1 [Example 3, N-(3-[1,4]Diazepan-1-yl-4-methyl-phenyl)-3-difluoromethoxy-N-methyl-benzenesulfonamide hydrochloride] | < 250 | –
Cc1ccc(NS(=O)(=O)c2cccc(OC(F)F)c2)cc1N1CCNCC1 [Example 1, 3-Difluoromethoxy-N-(4-methyl-3-piperazin-1-yl-phenyl)-benzenesulfonamide hydrochloride] | – | Ki [1]: < 20 nM
iodospiperone [[^125I]-iodospiperone] | – | Kd [2]: 0.22 nM
